Experimental data from PubChem BioAssay AID192 (DTP/NCI, 2004).
Several values for one entry are separate records, joined by “and”; a condition that tells them apart may be missing. Equal values may be shown once. Inconclusive results and toxic doses are left out.

Test system: BDF1 mice, B16 melanoma ip, median survival T/C
Experiment: NCI In Vivo Anticancer Drug Screen. Data for tumor model B16 Melanoma (intraperitoneal) in B6D2F1 (BDF1) mice
Details: endpoint: median survival time, higher = longer survival
Experimental: The antitumor activity of compounds was measured in mice bearing transplantable tumors. Survival or tumor size were measured and the results are expressed as the measurement made in the treated group (T) divided by the measurement made in the vehicle treated control group (C). The tumor model used in this assay is B16 Melanoma (intraperitoneal) in B6D2F1 (BDF1) mice

[1] = dose: 100.0 mg/kg/injection, schedule: Q01DX009 (ip), vehicle: saline with Tween-80
[2] = dose: 200.0 mg/kg/injection, schedule: Q01DX009 (ip), vehicle: saline with Tween-80
[3] = dose: 50.0 mg/kg/injection, schedule: Q01DX009 (ip), vehicle: Klucel (hydroxypropylcellulose) (HPC)
[4] = dose: 100.0 mg/kg/injection, schedule: Q01DX009 (ip), vehicle: Klucel (hydroxypropylcellulose) (HPC)
[5] = dose: 6.25 mg/kg/injection, schedule: Q01DX009 (ip), vehicle: saline
[6] = dose: 25.0 mg/kg/injection, schedule: Q01DX009 (ip), vehicle: saline
[7] = dose: 12.5 mg/kg/injection, schedule: Q01DX009 (ip), vehicle: saline with Tween-80
[8] = dose: 25.0 mg/kg/injection, schedule: Q01DX009 (ip), vehicle: saline with Tween-80
[9] = dose: 50.0 mg/kg/injection, schedule: Q01DX009 (ip), vehicle: saline with Tween-80
[10] = dose: 12.5 mg/kg/injection, schedule: Q01DX009 (ip), vehicle: Klucel (hydroxypropylcellulose) (HPC)
[11] = dose: 25.0 mg/kg/injection, schedule: Q01DX009 (ip), vehicle: Klucel (hydroxypropylcellulose) (HPC)
[12] = dose: 50.0 mg/kg/injection, schedule: Q01DX009 (ip), vehicle: saline
[13] = dose: 100.0 mg/kg/injection, schedule: Q01DX009 (ip), vehicle: saline

Structure (SMILES): O=C(Nc1ccc(F)cc1)Nc1ccc(Cl)cc1
- T/C [1]: 89 % of control
- T/C [2]: 89 % of control

Structure (SMILES): COc1cc2c[n+](C)c3c4cc(OC)c(OC)cc4ccc3c2cc1OC
- T/C (dose: 6.25 mg/kg/injection, schedule: Q01DX001 (ip), vehicle: saline with Tween-80): 109 % of control
- T/C (dose: 12.5 mg/kg/injection, schedule: Q01DX001 (ip), vehicle: saline with Tween-80): 100 % of control
- T/C (dose: 25.0 mg/kg/injection, schedule: Q01DX001 (ip), vehicle: saline with Tween-80): 105 % of control
- T/C (dose: 50.0 mg/kg/injection, schedule: Q01DX001 (ip), vehicle: saline with Tween-80): 88 % of control
- T/C [3]: 108 % of control
- T/C (dose: 100.0 mg/kg/injection, schedule: Q01DX001 (ip), vehicle: saline with Tween-80): 90 % of control
- T/C [4]: 102 % of control

Structure (SMILES): Cc1ccc(Oc2ccc3cc[n+](C)cc3c2)cc1
- T/C [5]: 98 % of control
- T/C (dose: 12.5 mg/kg/injection, schedule: Q01DX009 (ip), vehicle: saline): 100 % of control
- T/C [6]: 86 % of control

Structure (SMILES): CC[C@H]1CN2CCc3cc(OC)c(OC)cc3[C@@H]2C[C@@H]1C[C@H]1NCCc2c1[nH]c1ccc(O)cc21
- T/C (dose: 0.25 mg/kg/injection, schedule: Q01DX009 (ip), vehicle: Klucel (hydroxypropylcellulose) (HPC)): 111 % of control
- T/C (dose: 0.5 mg/kg/injection, schedule: Q01DX009 (ip), vehicle: Klucel (hydroxypropylcellulose) (HPC)): 114 % of control
- T/C (dose: 1.0 mg/kg/injection, schedule: Q01DX009 (ip), vehicle: Klucel (hydroxypropylcellulose) (HPC)): 123 % of control

Structure (SMILES): CC(C(=O)O)C(NC(=O)OCc1ccccc1)C(=O)O (centres undefined)
- T/C (dose: 100.0 mg/kg/injection, schedule: Q04DX003 (ip), vehicle: other): 97 % of control
- T/C (dose: 200.0 mg/kg/injection, schedule: Q04DX003 (ip), vehicle: other): 89 % of control

Structure (SMILES): O=S(=O)(O)C(O)c1cccnc1 (centres undefined)
- T/C [7]: 102 % of control
- T/C [8]: 86 % of control
- T/C [9]: 89 % of control

Structure (SMILES): CCC1OC(=O)CC(O)C(C)C(OC2OC(C)C(O)C(N(C)C)C2O)C(CC=O)CC(C)C(=O)/C=C/C2(C)OC2C1C (centres undefined)
- T/C [10]: 96 % of control
- T/C [11]: 97 % of control
- T/C [3]: 98 % of control
- T/C [4]: 88 % of control

Structure (SMILES): C/C=C/C=C/c1cc2cc3c(c(O)c2c(=O)[nH]1)C1(CC3)C(O)=c2c(=O)c3c(=O)cc(OC)c(=O)c=3c(=O)c2=C1O (centres undefined)
- T/C (dose: 0.06 mg/kg/injection, schedule: Q01DX009 (ip), vehicle: DMSO): 98 % of control
- T/C (dose: 0.12 mg/kg/injection, schedule: Q01DX009 (ip), vehicle: DMSO): 99 % of control
- T/C (dose: 0.25 mg/kg/injection, schedule: Q01DX009 (ip), vehicle: DMSO): 96 % of control
- T/C (dose: 0.5 mg/kg/injection, schedule: Q01DX009 (ip), vehicle: DMSO): 120 % of control

Structure (SMILES): Cc1cccc(NC(=O)COc2ccc(Cl)cc2)c1C
- T/C [6]: 98 % of control
- T/C [12]: 100 % of control
- T/C [1]: 98 % of control
- T/C [13]: 105 % of control

Structure (SMILES): Nc1nc2c(ncn2C2OC(CO)C(O)C2O)c(=O)[nH]1.Nc1nc2c(ncn2C2OC(CO)C(O)C2O)c(=O)[nH]1.[NH2-].[NH2-].[Pt+2] (centres undefined)
- T/C (dose: 6.25 mg/kg/injection, schedule: Q01DX009 (ip), vehicle: water): 100 % of control and 108 % of control
- T/C (dose: 12.5 mg/kg/injection, schedule: Q01DX009 (ip), vehicle: water): 98 % of control and 114 % of control
- T/C (dose: 25.0 mg/kg/injection, schedule: Q01DX009 (ip), vehicle: water): 117 % of control
- T/C (dose: 50.0 mg/kg/injection, schedule: Q01DX009 (ip), vehicle: water): 109 % of control
- T/C (dose: 100.0 mg/kg/injection, schedule: Q01DX009 (ip), vehicle: water): 160 % of control
- T/C (dose: 200.0 mg/kg/injection, schedule: Q01DX009 (ip), vehicle: water): 151 % of control and 170 % of control

Structure (SMILES): CSCCC(NC(=O)c1ccccc1)C(=O)O (centres undefined)
- T/C [10]: 89 % of control
- T/C [7]: 104 % of control
- T/C [11]: 100 % of control
- T/C [8]: 97 % of control
- T/C [3]: 88 % of control
- T/C [9]: 99 % of control
- T/C [4]: 88 % of control

Structure (SMILES): CC(=O)OCC(Br)C(Br)COC(C)=O (centres undefined)
- T/C [1]: 100 % of control
- T/C [2]: 97 % of control
- T/C (dose: 400.0 mg/kg/injection, schedule: Q01DX009 (ip), vehicle: saline with Tween-80): 97 % of control

Structure (SMILES): Nc1nc2[nH]c(=O)cnc2c(=O)[nH]1
- T/C [3]: 88 % of control
- T/C [4]: 86 % of control
- T/C (dose: 200.0 mg/kg/injection, schedule: Q01DX009 (ip), vehicle: Klucel (hydroxypropylcellulose) (HPC)): 99 % of control

Structure (SMILES): CNc1ccc(/C=C2\C=Cc3ccccc32)cc1
- T/C (dose: 12.5 mg/kg/injection, schedule: Q01DX009 (ip), vehicle: gum acacia): 104 % of control
- T/C [11]: 109 % of control
- T/C (dose: 25.0 mg/kg/injection, schedule: Q01DX009 (ip), vehicle: gum acacia): 91 % of control
- T/C [3]: 112 % of control
- T/C (dose: 50.0 mg/kg/injection, schedule: Q01DX009 (ip), vehicle: gum acacia): 102 % of control

Structure (SMILES): NC(N)=NOCC[C@@H](N)C(=O)O
- T/C [12]: 105 % of control
- T/C [13]: 101 % of control
- T/C (dose: 200.0 mg/kg/injection, schedule: Q01DX009 (ip), vehicle: saline): 100 % of control
- T/C (dose: 400.0 mg/kg/injection, schedule: Q01DX009 (ip), vehicle: saline): 99 % of control

Structure (SMILES): CCN(CCP(c1ccccc1)c1ccccc1)CCP(c1ccccc1)c1ccccc1
- T/C (dose: 3.13 mg/kg/injection, schedule: Q01DX009 (ip), vehicle: saline with Tween-80): 119 % of control
- T/C (dose: 6.25 mg/kg/injection, schedule: Q01DX009 (ip), vehicle: saline with Tween-80): 113 % of control
- T/C [7]: 90 % of control and 115 % of control
- T/C (dose: 12.5 mg/kg/injection, schedule: Q04DX003 (ip), vehicle: saline with Tween-80): 104 % of control
- T/C [8]: 100 % of control
- T/C (dose: 25.0 mg/kg/injection, schedule: Q04DX003 (ip), vehicle: saline with Tween-80): 107 % of control
- T/C (dose: 50.0 mg/kg/injection, schedule: Q04DX003 (ip), vehicle: saline with Tween-80): 109 % of control

Structure (SMILES): COC(=O)C[C@](O)(CCCC(C)(C)O)C(=O)O[C@@H]1C(OC)=C[C@]23CCCN2CCc2cc4c(cc2[C@H]13)OCO4
- T/C (dose: 0.13 mg/kg/injection, schedule: Q01DX009 (ip), vehicle: saline sonified): 107 % of control
- T/C (dose: 0.25 mg/kg/injection, schedule: Q01DX009 (ip), vehicle: saline sonified): 120 % of control
- T/C (dose: 0.25 mg/kg/injection, schedule: Q01DX009 (ip), vehicle: saline with Tween-80): 114 % of control
- T/C (dose: 0.98 mg/kg/injection, schedule: Q04DX003 (ip), vehicle: saline): 121 % of control
- T/C (dose: 1.0 mg/kg/injection, schedule: Q01DX009 (ip), vehicle: saline with Tween-80): 111 % of control
- T/C (dose: 1.4 mg/kg/injection, schedule: Q04DX003 (ip), vehicle: saline): 117 % of control
- T/C (dose: 2.0 mg/kg/injection, schedule: Q04DX003 (ip), vehicle: saline): 118 % of control
- T/C (dose: 2.86 mg/kg/injection, schedule: Q04DX003 (ip), vehicle: saline): 117 % of control

Structure (SMILES): C=C1C(=O)O[C@@H]2/C=C(\C)CC/C=C(/COC(C)=O)C[C@@H](OC(C)=O)[C@@H]12
- T/C (dose: 5.0 mg/kg/injection, schedule: Q01DX009 (ip), vehicle: saline with Tween-80): 107 % of control
- T/C (dose: 10.0 mg/kg/injection, schedule: Q01DX009 (ip), vehicle: saline with Tween-80): 99 % of control
- T/C (dose: 18.0 mg/kg/injection, schedule: Q01DX009 (ip), vehicle: acetone): 95 % of control
- T/C (dose: 20.0 mg/kg/injection, schedule: Q01DX009 (ip), vehicle: saline with Tween-80): 104 % of control

Structure (SMILES): O=C1CCCC2C1C1(O)CCC2(O)c2cccc(O)c21 (centres undefined)
- T/C (dose: 1.56 mg/kg/injection, schedule: Q01DX009 (ip), vehicle: saline): 90 % of control
- T/C (dose: 3.12 mg/kg/injection, schedule: Q01DX009 (ip), vehicle: saline): 95 % of control
- T/C (dose: 3.12 mg/kg/injection, schedule: Q04DX003 (ip), vehicle: saline): 93 % of control
- T/C [5]: 93 % of control
- T/C (dose: 6.25 mg/kg/injection, schedule: Q04DX003 (ip), vehicle: saline): 91 % of control
- T/C [10]: 95 % of control
- T/C (dose: 12.5 mg/kg/injection, schedule: Q04DX003 (ip), vehicle: saline): 91 % of control
- T/C (dose: 18.0 mg/kg/injection, schedule: Q04DX003 (ip), vehicle: saline): 105 % of control
- T/C (dose: 28.0 mg/kg/injection, schedule: Q04DX003 (ip), vehicle: saline): 103 % of control

Structure (SMILES): O=C1C=CC(=O)N1c1ccc2c(c1)oc(=O)c1ccccc12
- T/C [3]: 87 % of control
